This note sets out measurements from patent publication US20080207738A1, “DRUG COMBINATIONS TO TREAT DRUG RESISTANT TUMORS” (priority 2007, published 2008).

Structures are written as SMILES. Like-named read-outs stand apart in the source and are kept apart here.

For one data set, the system named is CLL cells. In words: cells. To be noted: Homo sapiens, CLL cell; for cytotoxicity at 5 µM: 72 h, CCcompound3 5 μM, alone or combined. On the procedure: Heparinized peripheral-blood samples were obtained from chronic lymphocytic leukemia patients with more than 70% malignant cells after informed consent, in accordance with the Declaration of Helsinki. The blood samples (10-ml) were diluted 1:1 with cold phosphate buffered saline (PBS; 0.135 M NaCl, 2.7 mM KCl, 1.5 mM KH2PO4, 8 mM Na2HPO4 [pH 7.4]) and layered onto Ficoll-Hypaque (8-ml, specific gravity, 1.086; Life Technologies, Grand Island, N.Y.). Then, the blood was centrifuged at 433 g for 20 min, and mononuclear cells were removed from the interphase. Cells were washed twice with cold PBS and after each centrifugation step the pelleted cells were resuspended in 10-ml RPMI 1640 supplemented with 10% fetal bovine serum (inactivated for 30 min at 56° C.). A Coulter channelyzer (Coulter Electronics, Hialeah, Fla.) was used to determine the cell number. Then the number of cells was adjusted to 1×10^7 cells per 1 ml before using them for the experiments.
(§1) For the determination of relative number of viable cells before and after treatments, in most cases the MTT assay was used. This calorimetric assay is based on the ability of living cells, but not dead cells, to reduce 3-(4, 5-dimethyl thiazol-2-yl)-2, 5-diphenyltetrazolium bromide [Carmichael, J, De Graff, W. G., Gazdar, A. F., Minna, J. D. and Mitchell, J. B. (1987), “Evaluation oftetrazolium-based semiautomated calorimetric assay: Assessment of chemosensitivity testing,” Cancer Res., 47, 936-942]. For this assay, cells were plated in 96-well plates (10,000-30,000 cells in case of cultured cells, 100,000 cells in case of healthy lymphocytes, and 200,000 cells in case of chronic lymphocytic leukemia or non-Hodgkin lymphocytes) in the respective incubation media. After a 24-h resting period, the cells were treated with the test agents and then incubated (in CO2 incubator under humidified atmosphere) for 72 hours (final incubation volume, 150 μl). The MTT assay was performed both with the untreated and treated cell cultures at the conclusion of the incubation. Often, the MTT assay also was performed at the start of treatments to allow assessment of proliferation rates in the control and treated cell cultures. All data presented are the average of 4 incubations (in 4 separate wells) with the same cell population.

The next data set relates to MCF-7/ADR cells. In words: MTT cell viability, MCF-7/ADR cells. To be noted: 72 h, CCcompound104 5 μg/ml, EA 60 μM, CCcompound26/CCcompound3/CCcompound19 50 μM, alone or combined. The class given is cell-based, human. On the procedure: MCF/ADR cells were selected by incubating the parent MCF-7 with toxic concentrations (up to 10 μM) of adriamycin (doxorubicin). The selected drug resistant cells express both MDR1 and MRP1 among other molecular alterations as reviewed earlier [Kiss, Z., Tomono, M. and Anderson, W. B. (1994), “Phorbol ester selectively stimulates the phospholipase D-mediated hydrolysis of phosphatidylethanolamine in multidrug-resistant MCF-7 human breast carcinoma cells,” Biochem. J., 302, 649-654]. […] Ethacrynic acid (EA) alone, used at 60 μM concentration, decreased cell viability by about 24%, while CCcompound104 and EA in combination had 70% inhibitory effects (Table 7). In this cell line CCcompound104 and EA decreased cell viability synergistically.

A short description of a further data set: in vitro. To be noted: human.
Source text: as §1
Peripheral lymphocytes are known to be very sensitive to chemotherapy and this sensitivity often limits the dose of chemotherapy that can be employed. In this series of experiments, the combined effects of CCcompound104 alone or in combination with CCcompound26 or CCcompound3 were determined on the viability of peripheral lymphocytes to establish doses that reduce cell viability less than 50%. As in previous experiments, the treatments were performed for 72 hours.

A further data set relates to MCF-7 cells. In words: Cell viability, MCF-7 cells. To be noted: Homo sapiens, MCF7, 72 h, read-out: decrease of cell viability. Type of data set: cell-based. On the procedure:
The MCF-7 cells were isolated from a human mammary tumor. After combined treatments with 5 μg/ml of CCcompound104 and 1 μM of CCcompound26 for 72 hours, the viability of these cells was decreased by 42%. EA (30 μM) alone decreased cell viability by 32%, while the 3 agents together decreased cell viability about 100% (i.e. practically no viable cells remained after the treatments).

Data set [1] has as its system lymphoma cells derived from non-Hodgkin patients. In words: MTT cell viability, lymphoma cells from non-Hodgkin patients. The class given is cell-based. To be noted: Homo sapiens, 72 h, CCcompound104 5 μg/ml, CCcompound26 1 μM, read-out: Inhibition (%) of viability. As for the experimental part: Lymphoma cells derived from two non-Hodgkin lymphoma patients were treated with EA (15 μM) in the absence or presence of CCcompound104 (5 μg/ml)+CCcompound26 (1 μM) for 72 hours. […] However, the 3 agents together decreased the number of viable cells by 91 and 97%, respectively (Table 13).

Data set [2] deals with parent L5178 mouse T-cell lymphoma cells. In words: MTT cell viability, parent L5178 cells. To be noted: L5178Y, 30,000 cells per well, 72 h.
Source text: as §1
Parent L5178 cells were seeded at 10,000 cells per well in 96-well plates and then incubated for 72 hours in the absence or presence of CCcompound104 (1 or 5 μg/ml) and various concentrations of CCcompound26 as indicated in Table 5.
(§2) Epirubicin, like doxorubicin and other antracyclins, is an MDR1 substrate. The goal of this experiment was to use epirubicin as a model compound to determine if in L5178/MDR1 cells CCcompound104 also can enhance the effects of MDR1 substrate anti-cancer agents other than CCcompound26 and other thioxanthene or thioxanthone CC compounds. The parent and MDR1 expressing cells were seeded at 30,000 cells per well in 96-well microplates and after a 24-h resting period treated with increasing concentrations of epirubicin n in the absence or presence of 5 μg/ml of CCcompound104 for 72 hours.

For data set [3], the system named is L5178/MDR1 mouse T-cell lymphoma cells. The data set can be described thus: cells. To be noted: mouse, 72 h.
Source text: as §1
L5178/MDR1 cells were seeded at 10,000 cells per well in 96-well plates and then incubated for 72 hours in the absence or presence of 5 μg/ml of CCcompound104 and various concentrations of CCcompound26 as indicated in Table 6.
as §2

Take `CC[N+](C)(CC)CCOCc1ccc2sc3ccccc3c(=O)c2c1` [CCcompound3]: the cytotoxicity at 5 µM was found to be 7.8% in the data set with CLL cells (read-out: Inhibition (%) of viability, CLL patient 8, CCcompound104 5 μg/ml); 11.1% in the data set on CLL cells (read-out: Inhibition (%) of viability, CLL patient 9, CCcompound104 5 μg/ml); 32% in the data set on CLL cells (read-out: Inhibition (%) of viability, CLL patient 10, CCcompound104 5 μg/ml); 33.3% in the data set on CLL cells (read-out: Inhibition (%) of viability, CLL patient 11, CCcompound104 5 μg/ml); 26% in the data set with CLL cells (read-out: Inhibition (%) of viability, CLL patient 12, CCcompound104 5 μg/ml); 12.5% with CLL cells (read-out: Inhibition (%) of viability, CLL patient 13, CCcompound104 5 μg/ml). For the same compound, the cytotoxicity at 5 µM in the data set with CLL cells (read-out: Inhibition (%) of viability, CLL patient 14, CCcompound104 5 μg/ml) amounted to 36.3%; in the data set on CLL cells (read-out: Inhibition (%) of viability, CLL patient 15, CCcompound104 5 μg/ml), 3.3%; in the data set on CLL cells (read-out: Inhibition (%) of viability, CLL patient 16, CCcompound104 5 μg/ml), 50.1%; in the data set on CLL cells (read-out: Inhibition (%) of viability, CLL patient 17, CCcompound104 5 μg/ml), 0%; in the data set on CLL cells (read-out: Inhibition (%) of viability, CLL patient 18, CCcompound104 5 μg/ml), 6%; with CLL cells (read-out: Inhibition (%) of viability, CLL patient 19, CCcompound104 5 μg/ml), 9.2%. Besides, the cytotoxicity at 5 µM in the data set with CLL cells (read-out: Inhibition (%) of viability, CLL patient 20, CCcompound104 5 μg/ml) worked out at 0%. Besides, the “Inhibition (%) of viability” value with MCF-7/ADR cells amounted to 20.0%. In the data set “in vitro” (Inhibition (%) of viability), the cytotoxicity at 72 h, 1 μM amounted to 0%. For the same compound, the cytotoxicity at 72 h, 50 μM in the data set “in vitro” (decrease of viability of healthy lymphocytes) came to 6%.

For `C[N+](C)(C)CCC=C1c2ccccc2Sc2ccccc21.[I-]` [CCcompound19, N,N,N-trimethyl-3-(9H-thioxanthen-9-ylidene)-propan-1-aminium iodide], the “Inhibition (%) of viability” value in the data set on MCF-7/ADR cells came out at 20.2%.

Regarding `C=C(CC)C(=O)c1ccc(OCC(=O)O)c(Cl)c1Cl` [EA, ethacrynic acid], the cytotoxicity at 30 µM in the data set with CLL cells (read-out: Inhibition (%) of viability, resistant CLL cells, patient 17, EA 30 μM, CCcompound104 5 μg/ml, CCcompound26 1 μM) was 31.8%; in the data set with CLL cells (read-out: Inhibition (%) of viability, resistant CLL cells, patient 18, EA 30 μM, CCcompound104 5 μg/ml, CCcompound26 1 μM) it was 38.3%; with CLL cells (read-out: decrease of viability of resistant CLL cells, over patients 17 and 18, EA 30 μM, CCcompound104 5 μg/ml, CCcompound26 1 μM) it was 31 to 38%; with MCF-7 cells, 32%. The cytotoxicity at 60 µM in the data set with MCF-7/ADR cells (Homo sapiens, NCI/ADR-RES, read-out: Inhibition (%) of viability) is roughly 24%. The cytotoxicity at 15 µM came to 36.8% in data set [1] (non-Hodgkin patient 1, EA 15 μM); 42.4% in data set [1] (non-Hodgkin patient 2, EA 15 μM); 48.2% in data set [1] (non-Hodgkin patient 3, EA 15 μM); 53.1% in data set [1] (non-Hodgkin patient 4, EA 15 μM).

As to `COc1cccc2c1C(=O)c1c(O)c3c(c(O)c1C2=O)C[C@@](O)(C(=O)CO)C[C@@H]3O[C@H]1C[C@H](N)[C@@H](O)[C@H](C)O1` [Epirubicin, epirubicin, reference compound], the “Inhibition (%) of viability” value in data set [2] (Epirubicin 0.156 μg/ml without or with CC104 5 μg/ml) was 6.1%; in data set [2] (Epirubicin 0.312 μg/ml without or with CC104 5 μg/ml) it was 41.5%; in data set [2] (Epirubicin 0.625 μg/ml without or with CC104 5 μg/ml), 98.6%; in data set [2] (Epirubicin 1.250 μg/ml without or with CC104 5 μg/ml) it was 100%; in data set [2] (Epirubicin 2.500 μg/ml without or with CC104 5 μg/ml), 100%; in data set [2] (Epirubicin 5.000 μg/ml without or with CC104 5 μg/ml), 100%. The “Inhibition (%) of viability” value in data set [3] (0.156 µg/ml) is 0%; in data set [3] (0.312 μg/ml), 0%; in data set [3] (0.625 μg/ml), 0%; in data set [3] (1.25 μg/ml), 0%; in data set [3] (2.5 μg/ml) it was 12.2%; in data set [3] (5 μg/ml), 32.4%.
